Test results published in US10112918B2, “15-oxospiramilactone derivatives, preparation method and uses thereof” (Kunming Institute of Botany, The Chinese Academy of Sciences, priority 2013, dated 2018).
Where two headings read alike, the source gives them in different places. Each block holds one molecule with its values, some of them ahead of it.

Legend:
Format in all cases: cell-based
[1] = test system: HL-60 (human promyelocytic leukemia cells); experiment: MTT inhibition of tumor cell growth, HL-60; settings: Homo sapiens
Procedure, shortened: (§1)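 IC50 derived by Reed and Muench two-point method from A595 after MTT (4 h) and overnight 10% SDS solubilization. Compound treatment lasted 48 h at 37 °C, screened at 40 μM then 5 concentrations for actives, in triplicate; 5000-10000 cells/well in 10% FBS medium.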

[2] = test system: SMMC-7721 (human hepatoma cells); experiment: MTT inhibition of tumor cell growth, SMMC-7721; settings: Homo sapiens
Procedure, shortened: as §1

[3] = test system: A-549 (Human lung adenocarcinoma cells); experiment: MTT inhibition of tumor cell growth, A-549; settings: Homo sapiens
Procedure, shortened: as §1

[4] = test system: MCF-7 (human breast cancer cells); experiment: MTT inhibition of tumor cell growth, MCF-7; settings: Homo sapiens
Procedure, shortened: as §1

[5] = test system: SW-480 (human colon cancer cells); experiment: MTT inhibition of tumor cell growth, SW-480; settings: Homo sapiens
Procedure, shortened: as §1

[6] = test system: Wnt signaling pathway (Top-Flash reporter gene); experiment: Top-Flash Wnt reporter gene assay in HEK293T cells with Wnt3a conditioned medium; settings: Homo sapiens, HEK-293T, 6 h, 6 h
Procedure, shortened: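 HEK293T transfected with TOP-flash (5 ng/well) plus GFP plasmid for normalization, then treated 6 h with mouse Wnt3a conditioned medium from L cells, with or without compound. GFP-normalized luciferase minus DMSO-only background, scaled to Wnt-induced activity; IC50 at 0.5 relative residual activity from 4-parameter logistic fit.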

[7] = HL-60, 48 h, Table 2, derivatives having potential Michael reaction acceptor
[8] = HL-60, 48 h, Table 4, derivatives obtained by reduction of the lactonic ring
[9] = SMMC-7721, 48 h, Table 2, derivatives having potential Michael reaction acceptor
[10] = SMMC-7721, 48 h, Table 4, derivatives obtained by reduction of the lactonic ring
[11] = A549, 48 h, Table 2, derivatives having potential Michael reaction acceptor
[12] = A549, 48 h, Table 4, derivatives obtained by reduction of the lactonic ring
[13] = MCF7, 48 h, Table 2, derivatives having potential Michael reaction acceptor
[14] = MCF7, 48 h, Table 4, derivatives obtained by reduction of the lactonic ring
[15] = SW480, 48 h, Table 2, derivatives having potential Michael reaction acceptor, read-out: IC50 SW-480
[16] = SW480, 48 h, Table 4, derivatives obtained by reduction of the lactonic ring, read-out: IC50 SW-480
[17] = Table 8, HEK293T, Wnt3a conditioned medium, read-out: IC50 (μM), inhibitory activity on the Wnt signaling pathway
[18] = Table 9, HEK293T, Wnt3a conditioned medium, read-out: IC50(μM), inhibitory activity on the Wnt signaling pathway
[19] = HL-60, 48 h, Table 3, single Michael reaction acceptor, modified lactonic ring
[20] = SMMC-7721, 48 h, Table 3, single Michael reaction acceptor, modified lactonic ring
[21] = A549, 48 h, Table 3, single Michael reaction acceptor, modified lactonic ring
[22] = MCF7, 48 h, Table 3, single Michael reaction acceptor, modified lactonic ring
[23] = SW480, 48 h, Table 3, single Michael reaction acceptor, modified lactonic ring, read-out: IC50 SW-480
[24] = HL-60, 48 h, Table 1, 7-hydroxy derivatives of S-3
[25] = SMMC-7721, 48 h, Table 1, 7-hydroxy derivatives of S-3
[26] = A549, 48 h, Table 1, 7-hydroxy derivatives of S-3
[27] = MCF7, 48 h, Table 1, 7-hydroxy derivatives of S-3
[28] = SW480, 48 h, Table 1, 7-hydroxy derivatives of S-3, read-out: IC50 SW-480
[29] = Table 7 (second), derivatives modified on 7-hydroxyl of S-3, HEK293T, Wnt3a conditioned medium, read-out: IC50 (μM), inhibitory activity on the Wnt signaling pathway

- IC50 [1, 7]: 3.38 µM
- IC50 [1, 8]: 3.38 µM
- IC50 [2, 9]: 3.91 µM
- IC50 [2, 10]: 3.91 µM
- IC50 [3, 11]: 2.95 µM
- IC50 [3, 12]: 2.95 µM
- IC50 [4, 13]: 3.38 µM
- IC50 [4, 14]: 3.38 µM
- IC50 [5, 15]: 3.74 µM
- IC50 [5, 16]: 3.74 µM
- IC50 ([5]; SW480, 48 h, Table 6, 7-carbonyl derivatives, read-out: IC50 SW-480, 7-carbonyl derivatives): 3.67 µM
- IC50 [6, 17]: 16.9 ± 1.89 µM
Structure (SMILES): C=C1C(=O)C23CC[C@H]1CC2[C@]1(COC(C)=O)CCC[C@@](C)(COC(C)=O)C1CC3=O (some centres unmarked) [Compound 47]

- IC50 [1, 7]: 3.85 µM
- IC50 [2, 9]: 2.48 µM
- IC50 [3, 11]: 2.44 µM
- IC50 [4, 13]: 3.94 µM
- IC50 [5, 15]: 2.8 µM
- IC50 [6, 18]: 6.89 ± 0.27 µM
Structure (SMILES): C=C1C(=O)[C@]23CC[C@H]1CC2[C@@]12CCC[C@@](C)(COC1=O)C2[C@H](CO)C3=O (some centres unmarked) [Compound 11]

Structure (SMILES): C=C1C(=O)[C@]23CC[C@H]1CC2[C@@]12CCC[C@@]4(C)C(=O)N(CCO)[C@@H]1O[C@@H]3CC24 (some centres unmarked) [Compound 83]
- IC50 ([1]; HL-60, Table 7 (first), alkaloid derivatives, 48 h): 18.6 µM
- IC50 ([2]; SMMC-7721, Table 7 (first), alkaloid derivatives, 48 h): 18.4 µM
- IC50 ([3]; A549, Table 7 (first), alkaloid derivatives, 48 h): 17.9 µM
- IC50 ([4]; MCF7, Table 7 (first), alkaloid derivatives, 48 h): 13.2 µM
- IC50 ([5]; SW480, Table 7 (first), alkaloid derivatives, 48 h, read-out: IC50 SW-480): 12.4 µM
- IC50 ([6]; read-out: IC50 (μM), inhibitory activity on the Wnt signaling pathway): > 60 µM

- IC50 [1, 19]: 17 µM
- IC50 [2, 20]: 10.9 µM
- IC50 [3, 21]: 13.7 µM
- IC50 [4, 22]: 18.5 µM
- IC50 [5, 23]: 24.6 µM
- IC50 [6, 17]: 18.1 ± 2.67 µM
Structure (SMILES): C=C1C(=O)C23CC[C@H]1CC2[C@@]12CCC[C@@]4(C)CO[C@@H]1O[C@@H]3CC42 (some centres unmarked) [Compound 36]

- IC50 [1, 24]: 3.37 µM
- IC50 [2, 25]: 3.35 µM
- IC50 [3, 26]: 2.59 µM
- IC50 [4, 27]: 2.58 µM
- IC50 [5, 28]: 2.5 µM
- IC50 [6, 29]: 28.3 ± 2.76 µM
Structure (SMILES): C=C1C(=O)C23CC[C@H]1CC2[C@@]12CCC[C@@](C)(COC1=O)C2C[C@H]3OC(=O)[C@@H](C)Cl (some centres unmarked) [Compound 1i]

- IC50 [1, 24]: 1.05 µM
- IC50 [2, 25]: 1.23 µM
- IC50 [3, 26]: 0.5 µM
- IC50 [4, 27]: 3.47 µM
- IC50 [5, 28]: 3 µM
- IC50 [6, 29]: 28.8 ± 0.56 µM
Structure (SMILES): C=C1C(=O)[C@]23CC[C@H]1CC2[C@@]12CCC[C@@](C)(COC1=O)C2C[C@H]3OC(=O)CBr (some centres unmarked) [Compound 1d]

- IC50 [1, 8]: 0.62 µM
- IC50 [2, 10]: 1.06 µM
- IC50 [3, 12]: 1.17 µM
- IC50 [4, 14]: 0.65 µM
- IC50 [5, 16]: 0.8 µM
- IC50 ([6]; Table 10, HEK293T, Wnt3a conditioned medium, read-out: IC50 (μM), inhibitory activity on the Wnt signaling pathway): 12.1 ± 1.25 µM
Structure (SMILES): C=C1C(=O)C23CC[C@H]1CC2[C@]1(COCC#N)CCC[C@@](C)(COC(=O)c2cccs2)C1CC3=O (some centres unmarked) [Compound 55]

- IC50 ([1]; HL-60, 48 h, Table 5, derivatives having double Michael reaction acceptor): 0.29 µM
- IC50 ([2]; SMMC-7721, 48 h, Table 5, derivatives having double Michael reaction acceptor): 0.22 µM
- IC50 ([3]; A549, 48 h, Table 5, derivatives having double Michael reaction acceptor): 0.35 µM
- IC50 ([4]; MCF7, 48 h, Table 5, derivatives having double Michael reaction acceptor): 0.33 µM
- IC50 ([5]; SW480, 48 h, Table 5, derivatives having double Michael reaction acceptor, read-out: IC50 SW-480): 0.16 µM
- IC50 ([5]; SW480, 48 h, Table 6, double Michael reaction acceptor derivatives, read-out: IC50 SW-480, derivatives having double Michael reaction acceptor): 0.26 µM
- IC50 [6, 18]: 7.68 ± 0.19 µM
Structure (SMILES): C=C1C(=O)C23CC[C@@H](CC2[C@]2(COC(=O)c4cccs4)CCC[C@@](C)(COC(=O)c4cccs4)C12)C(=C)C3=O (some centres unmarked) [Compound 65]

- IC50 [1, 24]: 4.2 µM
- IC50 [2, 25]: 3.6 µM
- IC50 [3, 26]: 2.46 µM
- IC50 [4, 27]: 3.07 µM
- IC50 [5, 28]: 2.43 µM
- IC50 [6, 29]: 18.6 ± 1.48 µM
Structure (SMILES): C=C1C(=O)C23CC[C@H]1CC2[C@@]12CCC[C@@](C)(COC1=O)C2C[C@H]3OC(=O)c1ccc(OC)cc1 (some centres unmarked) [Compound 1l]

- IC50 [1, 24]: 1.46 µM
- IC50 [2, 25]: 3.6 µM
- IC50 [3, 26]: 2.83 µM
- IC50 [4, 27]: 3.48 µM
- IC50 [5, 28]: 3.44 µM
- IC50 [6, 29]: 14.2 ± 0.67 µM
Structure (SMILES): C=C1C(=O)[C@]23CC[C@H]1CC2[C@@]12CCC[C@@](C)(COC1=O)C2C[C@H]3OC(C)=O (some centres unmarked) [Compound 1b]

- IC50 [1, 7]: 6.3 µM
- IC50 [2, 9]: 10.8 µM
- IC50 [3, 11]: 4.69 µM
- IC50 [4, 13]: 4.23 µM
- IC50 [5, 15]: 6.57 µM
- IC50 [6, 18]: 56 ± 0.92 µM
Structure (SMILES): C=C1C(=O)C23CC[C@H]1CC2[C@]1(COC(C)=O)CCC[C@@](C)(COC(C)=O)C1[C@H](CN1CCOCC1)C3=O (some centres unmarked) [Compound 50]

- IC50 [1, 19]: 4.87 µM
- IC50 [2, 20]: 4.92 µM
- IC50 [3, 21]: 3.25 µM
- IC50 [4, 22]: 4 µM
- IC50 [5, 23]: 6.33 µM
- IC50 ([5]; SW480, 48 h, Table 6, 7-hydroxyl derivatives and controls, read-out: IC50 SW-480, 7-hydroxyl derivatives): 4.12 µM
- IC50 [6, 17]: 21.7 ± 0.63 µM
Structure (SMILES): C=C1C(=O)[C@]23CC[C@H]1CC2[C@@]12CCC[C@@](C)(COC1)C2C[C@H]3O (some centres unmarked) [Compound 25]
